What was measured:
Amaranthus retroflexus = assay: greenhouse post-emergence herbicidal test, pig weed; format: in vivo; conditions: 2 to 4 weeks; for post-emergence action against pig weed: application rate 1.0 kg/ha a.s.; for post-emergence control of pig weed: application rate 0.5 kg/ha a.s.
Description: (§1) The seeds of the test plants were sown separately for each species. For the post-emergence treatment, the test plants were first grown to a height of 3 to 15 cm, depending on the plant habit, and only then treated with the active ingredients which had been suspended or emulsified in water. For this purpose, the test plants were either sown directly and grown in the same containers, or they were first grown separately as seedlings and transplanted into the test containers a few days prior to treatment. The rate of application for the post-emergence treatment was 1.0 or 0.5 kg/ha of a.s. (active substance). Depending on the species, the plants were kept at 10-25° C. or 20-35° C. The test period extended over 2 to 4 weeks. During this time, the plants were tended, and their response to the individual treatments was evaluated. Evaluation was carried out using a scale from 0 to 100.100 means no emergence of the plants, or complete destruction of at least the aerial parts, and 0 means no damage, or normal course of growth. The plants used in the greenhouse experiments belonged to the following species: [table]

Chenopodium album = assay: greenhouse post-emergence herbicidal test, lambsquarters; format: in vivo; conditions: 2 to 4 weeks; for post-emergence action against lambsquarters: application rate 1.0 kg/ha a.s.; for post-emergence control of lambsquarters: application rate 0.5 kg/ha a.s.
Description: as §1

Setaria viridis = assay: greenhouse post-emergence herbicidal test, green foxtail; format: in vivo; conditions: 2 to 4 weeks; for post-emergence action against green foxtail: application rate 1.0 kg/ha a.s.; for post-emergence control of green foxtail: application rate 0.5 kg/ha a.s.
Description: as §1

Row | melting point [°C] | SMILES | post-emergence action against pig weed (Amaranthus retroflexus) | post-emergence action against lambsquarters (Chenopodium album) | post-emergence action against green foxtail (Setaria viridis) | post-emergence control of pig weed (Amaranthus retroflexus) | post-emergence control of lambsquarters (Chenopodium album) | post-emergence control of green foxtail (Setaria viridis)
1 | – | CNC(=O)C(NC(=O)c1cn(C)nc1C(F)(F)F)C(OC(=O)N(C)C)c1nccs1 (mixture of isomers) [Compound 3.59] | very good | very good | very good | – | – | –
2 | – | CNC(=O)C(NC(=O)c1cn(C)nc1C(F)(F)F)C(OC(C)=O)c1nccs1 (mixture of isomers) [Compound 3.54] | – | – | – | very good | very good | very good
3 | – | CNC(=O)C(NC(=O)c1cn(C)nc1C(F)(F)F)C(O)c1nccs1 (mixture of isomers) [Compound 3.51] | very good | very good | very good | – | – | –
4 | – | CNC(=O)C(NC(=O)c1cn(C)nc1C(F)(F)F)C(O)c1cccs1 (mixture of isomers) [Compound 3.5] | very good | very good | very good | – | – | –
5 | – | CNC(=O)C(NC(=O)c1cn(C)nc1C(F)(F)F)C(OC(C)=O)c1ccn[nH]1 (mixture of isomers) [Compound 3.19] | – | – | – | very good | very good | very good
6 | – | CNC(=O)C(NC(=O)c1cn(C)nc1C(F)(F)F)C(O)c1nccs1 (mixture of isomers) [Compound 3.52] | very good | very good | very good | – | – | –
7 | – | CNC(=O)C(NC(=O)c1cn(C)nc1C(F)(F)F)C(O)c1cccc(C)n1 (racemic) [Compound 3.2] | – | – | – | very good | very good | very good
8 | – | CNC(=O)C(NC(=O)c1cn(C)nc1C(F)(F)F)C(O)c1ccccn1 (racemic) [Compound 3.1] | very good | very good | very good | – | – | –
9 | – | CNC(=O)C(NC(=O)c1cn(C)nc1C(F)(F)F)C(OC(=O)N(C)C)c1nccs1 (mixture of isomers) [Compound 3.57] | very good | very good | very good | – | – | –
10 | – | CNC(=O)C(NC(=O)c1cn(C)nc1C(F)(F)F)C(O)c1ccn[nH]1 (mixture of isomers) [Compound 3.17] | very good | very good | very good | – | – | –
11 | – | CNC(=O)C(NC(=O)c1cn(C)nc1C(F)(F)F)C(OC(=O)N(C)C)c1cccs1 (mixture of isomers) [Compound 3.6] | – | – | – | very good | very good | very good
12 | 206 | CNC(=O)C(NC(=O)c1cscc1C(F)(F)F)C(O)c1cnc2ccccc2c1 (racemic) [Compound 3.15, rac-erythro-N-(2-hydroxy-1-methylcarbamoyl-2-quinolin-3-ylethyl)-4-trifluoromethyl-thiophene-3-carboxamide] | – | – | – | – | – | –
13 | – | CNC(=O)C(NC(=O)c1cn(C)nc1C(F)(F)F)C(O)c1ccn(C)n1 (racemic) [Compound 3.33] | very good | very good | very good | – | – | –
